From the supplement of paper PMC11451515

Test system: NOMO1
Experiment: cell viability relative to DMSO control; higher = less cytotoxic
Conditions: 48 h
Method in brief: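 Library compounds in DMSO were pin-dosed into 1536-well plates (5 μl) holding NOMO1 or SEM (500 cells/well) or P12-Ichikawa (1000 cells/well) leukemia cells, across an 11-point threefold series of 47 μM to 0.79 nM. Each cell line had been adapted for at least four passages in each medium. CellTiter-Glo One luminescence was read after 48 h at 37°C. Viability is the per-plate percentage relative to DMSO wells, with cell-free wells as background.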

[1] = HPLM + 10% dialyzed FBS, 0.000781 µM
[2] = HPLM + 10% dialyzed FBS, 0.00234 µM
[3] = HPLM + 10% dialyzed FBS, 0.00702 µM
[4] = HPLM + 10% dialyzed FBS, 0.0211 µM
[5] = HPLM + 10% dialyzed FBS, 0.0632 µM
[6] = HPLM + 10% dialyzed FBS, 0.19 µM
[7] = HPLM + 10% dialyzed FBS, 0.569 µM
[8] = HPLM + 10% dialyzed FBS, 1.71 µM
[9] = HPLM + 10% dialyzed FBS, 5.12 µM
[10] = HPLM + 10% dialyzed FBS, 15.4 µM
[11] = HPLM + 10% dialyzed FBS, 46.1 µM
[12] = RPMI 5 mM glucose + 10% FBS, 0.000781 µM
[13] = RPMI 5 mM glucose + 10% FBS, 0.00234 µM
[14] = RPMI 5 mM glucose + 10% FBS, 0.00702 µM
[15] = RPMI 5 mM glucose + 10% FBS, 0.0211 µM
[16] = RPMI 5 mM glucose + 10% FBS, 0.0632 µM
[17] = RPMI 5 mM glucose + 10% FBS, 0.19 µM
[18] = RPMI 5 mM glucose + 10% FBS, 0.569 µM
[19] = RPMI 5 mM glucose + 10% FBS, 1.71 µM
[20] = RPMI 5 mM glucose + 10% FBS, 5.12 µM
[21] = RPMI 5 mM glucose + 10% FBS, 15.4 µM
[22] = RPMI 5 mM glucose + 10% FBS, 46.1 µM
[23] = RPMI 5 mM glucose + 10% dialyzed FBS, 0.000781 µM
[24] = RPMI 5 mM glucose + 10% dialyzed FBS, 0.00234 µM
[25] = RPMI 5 mM glucose + 10% dialyzed FBS, 0.00702 µM
[26] = RPMI 5 mM glucose + 10% dialyzed FBS, 0.0211 µM
[27] = RPMI 5 mM glucose + 10% dialyzed FBS, 0.0632 µM
[28] = RPMI 5 mM glucose + 10% dialyzed FBS, 0.19 µM
[29] = RPMI 5 mM glucose + 10% dialyzed FBS, 0.569 µM
[30] = RPMI 5 mM glucose + 10% dialyzed FBS, 1.71 µM
[31] = RPMI 5 mM glucose + 10% dialyzed FBS, 5.12 µM
[32] = RPMI 5 mM glucose + 10% dialyzed FBS, 15.4 µM
[33] = RPMI 5 mM glucose + 10% dialyzed FBS, 46.1 µM

COCCOC(=O)C/1=C(C)/NC/2=C(C1C3=CC=CC(=C3)O)/C(=O)CC(C2)C4=C(OC)C=CC=C4 (centres undefined)
cell viability [1]: 96.9%
cell viability [2]: 105%
cell viability [3]: 93.2%
cell viability [4]: 118%
cell viability [5]: 116%
cell viability [6]: 104%
cell viability [7]: 124%
cell viability [8]: 97.9%
cell viability [9]: 102%
cell viability [10]: 87.5%
cell viability [11]: 59.3%
cell viability [12]: 82.5%
cell viability [13]: 89.6%
cell viability [14]: 110%
cell viability [15]: 118%
cell viability [16]: 119%
cell viability [17]: 99.7%
cell viability [18]: 99.7%
cell viability [19]: 99.5%
cell viability [20]: 97.3%
cell viability [21]: 96.9%
cell viability [22]: 78.5%
cell viability [23]: 89.4%
cell viability [24]: 105%
cell viability [25]: 99.7%
cell viability [26]: 99.6%
cell viability [27]: 114%
cell viability [28]: 109%
cell viability [29]: 112%
cell viability [30]: 99.2%
cell viability [31]: 109%
cell viability [32]: 91.4%
cell viability [33]: 85.2%

Fc1cc(-c2cccc3ncc(-c4cnn(C5CCNCC5)c4)nc23)cc(F)c1CN1CCOCC1
cell viability [1]: 111%
cell viability [2]: 122%
cell viability [3]: 130%
cell viability [4]: 132%
cell viability [5]: 108%
cell viability [6]: 124%
cell viability [7]: 135%
cell viability [8]: 103%
cell viability [9]: 42.6%
cell viability [10]: 21.5%
cell viability [11]: 16.1%
cell viability [12]: 109%
cell viability [13]: 107%
cell viability [14]: 119%
cell viability [15]: 102%
cell viability [16]: 111%
cell viability [17]: 116%
cell viability [18]: 114%
cell viability [19]: 105%
cell viability [20]: 84%
cell viability [21]: 29.4%
cell viability [22]: 18.3%
cell viability [23]: 128%
cell viability [24]: 115%
cell viability [25]: 124%
cell viability [26]: 122%
cell viability [27]: 125%
cell viability [28]: 103%
cell viability [29]: 119%
cell viability [30]: 103%
cell viability [31]: 95.2%
cell viability [32]: 54.9%
cell viability [33]: 25.9%

Cc1[nH]c(/C=C2\C(=O)Nc3ccc([S+](=O)([O-])N(C)c4cccc(Cl)c4)cc32)c(C)c1C(=O)N1CCN(C)CC1
cell viability [1]: 114%
cell viability [2]: 131%
cell viability [3]: 123%
cell viability [4]: 103%
cell viability [5]: 119%
cell viability [6]: 99.2%
cell viability [7]: 115%
cell viability [8]: 120%
cell viability [9]: 109%
cell viability [10]: 103%
cell viability [11]: 10.1%

NC(=O)N1c2ccccc2CC(=O)c2ccccc21
cell viability [1]: 115%
cell viability [2]: 124%
cell viability [3]: 121%
cell viability [4]: 126%
cell viability [5]: 123%
cell viability [6]: 136%
cell viability [7]: 128%
cell viability [8]: 137%
cell viability [9]: 126%
cell viability [10]: 143%
cell viability [11]: 163%

CC(C)C[C@H](CN)CC(=O)O
cell viability [1]: 105%
cell viability [2]: 108%
cell viability [3]: 122%
cell viability [4]: 109%
cell viability [5]: 98.1%
cell viability [6]: 96.1%
cell viability [7]: 108%
cell viability [8]: 117%
cell viability [9]: 101%
cell viability [10]: 79.6%
cell viability [11]: 91.7%
cell viability [12]: 90.3%
cell viability [13]: 95.6%
cell viability [14]: 102%
cell viability [15]: 97.8%
cell viability [16]: 87.9%
cell viability [17]: 89.9%
cell viability [18]: 99.3%
cell viability [19]: 93.6%
cell viability [20]: 91.5%
cell viability [21]: 90.3%
cell viability [22]: 83.8%
cell viability [23]: 97.3%
cell viability [24]: 100%
cell viability [25]: 105%
cell viability [26]: 106%
cell viability [27]: 95.8%
cell viability [28]: 97.6%
cell viability [29]: 99.3%
cell viability [30]: 89.3%
cell viability [31]: 99.2%
cell viability [32]: 92.1%
cell viability [33]: 90%

CC(C)(C)OC(=O)CN(Cc1ccc(Cl)cc1)Cc1ccc([N+](=O)[O-])s1
cell viability [1]: 109%
cell viability [2]: 95.6%
cell viability [3]: 107%
cell viability [4]: 96.8%
cell viability [5]: 101%
cell viability [6]: 99.6%
cell viability [7]: 91.1%
cell viability [8]: 87.5%
cell viability [9]: 92.7%
cell viability [10]: 75.3%
cell viability [11]: 40.7%
cell viability [12]: 88.9%
cell viability [13]: 98.6%
cell viability [14]: 95.4%
cell viability [15]: 87%
cell viability [16]: 93.5%
cell viability [17]: 105%
cell viability [18]: 96.3%
cell viability [19]: 92.9%
cell viability [20]: 89.7%
cell viability [21]: 81.3%
cell viability [22]: 66.5%
cell viability [23]: 107%
cell viability [24]: 97.7%
cell viability [25]: 95.7%
cell viability [26]: 96.6%
cell viability [27]: 107%
cell viability [28]: 94%
cell viability [29]: 103%
cell viability [30]: 102%
cell viability [31]: 95.5%
cell viability [32]: 87%
cell viability [33]: 80.1%
